Laboratory results taken from patent publication US7632830B2, “Lactam compounds and pharmaceutical use thereof” (Ajinomoto Co., Inc., priority 2000, dated 2009).

test system: adipose cells of rats; assay: Evaluation of the sugar-transporting activity (2-[14C(U)]-deoxy-D-glucose incorporation); type: cell-based; conditions: 100 μg/ml of each compound; evaluated on the basis of the reinforcing effect of insulin (100 nM); rat adipose cells
Protocol: After the decapitation and venesection of 6 male Wistar rats (body weight: 150 to 200 g), an incision was made in the abdomen of each rat to extract 6 g in total of epididymal adipose tissues. The tissues were finely cut into 2 mm×2 mm pieces in 6 ml of KRH (Krebs-Ringer Hepes, composition: 130 mM of sodium chloride, 4.7 mM of potassium chloride, 1.2 mM of potassium dihydrogenphosphate, 1.2 mM of magnesium sulfate, 1 mM of calcium chloride and 25 mM of Hepes, pH=7.6) containing 5% of BSA (bovine serum albumin). 24 mg of collagenase (type I) was added thereto and the digestion treatment was conducted for about 40 minutes to obtain about 6 ml of isolated adipose cells. The collagenase was removed by the buffer exchange. 2% BSA/KRH solution was added to the residue for the re-suspension to obtain 45 ml of an adipose cell suspension.
The sugar-transporting activity of the compounds of the present invention was evaluated with reference to a method described in a literature [Annual Review of Biochemistry, Vol. 55, p. 1059 (1986)]. In the test, 200 μl of the adipose cell suspension was poured in each polystyrene test tube, 100 μl of the solution of the test substance (by dilution of 10 mg/ml substance dimethyl sulfoxide solution with KRH) was added thereto, and the obtained mixture was shaken and then cultured at 37° C. for 30 minutes.
The sugar-transporting activity was evaluated by measuring the quantity of 2-[^14C(U)]-deoxy-D-glucose incorporated per a unit time. Namely, 2-[^14C(U)]-deoxy-D-glucose was added to the adipose cell suspension after the pre-culture (the final concentration: 0.5 μCi/sample). 5 minutes after, cytochalasin B (final concentration: 10 μM) was added to the mixture to terminate the sugar transportation. After forming a dinonyl phthalate layer, the obtained mixture was centrifuged to separate the adipose cells from the buffer. The quantity of 2-[^14C(U)]-deoxy-D-glucose contained in the adipose cell layer was determined with a liquid scintillation counter to determine the quantity of the incorporated sugar. In this evaluation system, when insulin (100 nM) having the effect of increasing the sugar transportation was used, the effect was about 7 times as high as that obtained in the insulin-free control group.
The results of the evaluation of the sugar-transporting activity obtained by using 100 μg/ml of each compound of the present invention are shown in Table 6. The sugar transporting activity in Table 6 was evaluated on the basis of the reinforcing effect of insulin (100 nM). […] The symbols in Table 6 are as follows: • No: Example No., and • A: sugar transporting activity.
The results of the evaluation of the sugar-transporting activity obtained by using each compound of the present invention are shown in Table 7. The sugar transporting activity in Table 7 was determined in terms of the concentration (EC50: μg/ml) of a test compound, having a reinforcing effect corresponding to 50% on the basis of the reinforcing effect of insulin having a reinforcing effect of 100%.

`O=C1NCC2=C1C(c1ccc(OCc3ccccc3)cc1)Nc1ccccc1N2` (stereo not drawn) [Example 1] and `O=C1NCC2=C1C(c1ccc(-c3ccccc3)cc1)Nc1ccccc1N2` (stereo not drawn) [Example 7] fall in the same range of activation at 100 µg/mL: 40 to 70% for the first, 40 to 70% for the second.

`O=C1NCC2=C1C(c1ccc(Cl)cc1)Nc1ccccc1N2` (stereo not drawn) [Example 2] and `O=C1NCC2=C1C(c1ccc(I)cc1)Nc1ccccc1N2` (stereo not drawn) [Example 3] fall in the same range of activation at 100 µg/mL: 20 to 40% for the first, 20 to 40% for the second.

`CC(C)(C)c1ccc(C2Nc3ccccc3NC3=C2C(=O)NC3)cc1` (stereo not drawn) [Example 5] and `CC(C)(C)c1ccc(C2Nc3ccccc3NC3=C2C(=O)NC3)c(Cl)c1` (stereo not drawn) [Example 30] fall in the same range of activation at 100 µg/mL: 20 to 40% for the first, 20 to 40% for the second.

Compared with `O=C1NCC2=C1C(c1ccc(C#Cc3ccccc3)cc1)Nc1ccccc1N2` (stereo not drawn) [Example 6], `O=C1NCC2=C1C(c1ccc(-n3cccn3)cc1)Nc1ccccc1N2` (stereo not drawn) [Example 17] is lower in activation at 100 µg/mL: 40 to 70% for the first, 20 to 40% for the second.

`O=C1NCC2=C1C(c1ccc(-c3ccc([N+](=O)[O-])cc3)cc1)Nc1ccccc1N2` (stereo not drawn) [Example 8] and `O=C1NCC2=C1C(c1ccc3c(c1)Cc1ccccc1-3)Nc1ccccc1N2` (stereo not drawn) [Example 9] cannot be ordered by activation at 100 µg/mL: no less than 70% for the first, 40 to 70% for the second.

First: CCCCOc1ccc(C2Nc3ccccc3NC3=C2C(=O)NC3)cc1 (stereo not drawn) [Example 10]
Second: CCCCCCCCCCCCOc1ccc(C2Nc3ccccc3NC3=C2C(=O)NC3)cc1 (stereo not drawn) [Example 11]
The activation at 100 µg/mL of the first is lower: 20 to 40% for the first, 40 to 70% for the second.

Compared with `O=C1NCC2=C1C(c1ccc(OC3CCCCCC3)cc1)Nc1ccccc1N2` (stereo not drawn) [Example 12], `O=C1NCC2=C1C(c1ccc(OCCC3CCCCC3)cc1)Nc1ccccc1N2` (stereo not drawn) [Example 16] is higher in activation at 100 µg/mL: 20 to 40% for the first, 40 to 70% for the second.

`O=C1NCC2=C1C(c1ccc(OC3C4CC5CC(C4)CC3C5)cc1)Nc1ccccc1N2` (stereo not drawn) [Example 13] and `O=C1NCC2=C1C(c1ccc(OCC34CC5CC(CC(C5)C3)C4)cc1)Nc1ccccc1N2` (stereo not drawn) [Example 14] cannot be ordered by activation at 100 µg/mL: 40 to 70% for the first, no less than 70% for the second.

`O=C1NCC2=C1C(c1ccc(OCCC34CC5CC(CC(C5)C3)C4)cc1)Nc1ccccc1N2` (stereo not drawn) [Example 15] and `CCCCOc1ccc(C2Nc3ccccc3NC3=C2C(=O)NC3)c(OC)c1` (stereo not drawn) [Example 21] fall in the same range of activation at 100 µg/mL: 40 to 70% for the first, 40 to 70% for the second.

Compared with `O=C1NCC2=C1C(c1ccc(Cl)cc1Cl)Nc1ccccc1N2` (stereo not drawn) [Example 20], `CC(C)(C)CC(C)(C)c1ccc(C2Nc3ccccc3NC3=C2C(=O)NC3)c(Cl)c1` (stereo not drawn) [Example 31] is higher in activation at 100 µg/mL: 20 to 40% for the first, no less than 70% for the second.

`CCCCOc1ccc(C2Nc3ccccc3NC3=C2C(=O)NC3)c(OCCCC)c1` (stereo not drawn) [Example 22] and `CCCCOc1ccc(C2Nc3ccccc3NC3=C2C(=O)NC3)c(OCCC)c1` (stereo not drawn) [Example 24] cannot be ordered by activation at 100 µg/mL: no less than 70% for the first, no less than 70% for the second.

`CCCCOc1ccc(C2Nc3ccccc3NC3=C2C(=O)NC3)c(OCC)c1` (stereo not drawn) [Example 23] and `CCCOc1ccc(C2Nc3ccccc3NC3=C2C(=O)NC3)c(OCC)c1` (stereo not drawn) [Example 26] cannot be ordered by activation at 100 µg/mL: no less than 70% for the first, 40 to 70% for the second.

`CCCOc1cc(OCC)ccc1C1Nc2ccccc2NC2=C1C(=O)NC2` (stereo not drawn) [Example 25] and `CCCCCCOc1ccc(C2Nc3ccccc3NC3=C2C(=O)NC3)c(OC)c1` (stereo not drawn) [Example 27] fall in the same range of activation at 100 µg/mL: 40 to 70% for the first, 40 to 70% for the second.

Compared with `COc1cc(OCc2ccccc2)ccc1C1Nc2ccccc2NC2=C1C(=O)NC2` (stereo not drawn) [Example 28], `CCCCCCOc1ccc(C2Nc3ccccc3NC3=C2C(=O)NC3)c(O)c1` (stereo not drawn) [Example 29] is lower in activation at 100 µg/mL: 40 to 70% for the first, 20 to 40% for the second.

Compared with `O=C1NCC2=C1C(c1cnc(-c3ccccc3)nc1)Nc1ccccc1N2` (stereo not drawn) [Example 34], `CC(=O)N1c2ccccc2NC2=C(C(=O)NC2)C1c1ccc(Br)cc1` (stereo not drawn) [Example 43] is higher in activation at 100 µg/mL: 20 to 40% for the first, 40 to 70% for the second.

`O=C1NCC2=C1[C@@H](c1ccc(Br)cc1)N[C@@H]1CCCC[C@H]1N2` [Example 37] and `O=C1NCC2=C1[C@@H](c1ccc(Cl)cc1)N[C@@H]1CCCC[C@H]1N2` [Example 41] cannot be ordered by activation at 100 µg/mL: 40 to 70% for the first, no less than 70% for the second.

`O=C1NCC2=C1[C@@H](c1ccc(OCc3ccccc3)cc1O)N[C@@H]1CCCC[C@H]1N2` [Example 38] and `COc1ccccc1[C@H]1N[C@@H]2CCCC[C@H]2NC2=C1C(=O)NC2` [Example 39] cannot be ordered by activation at 100 µg/mL: no less than 70% for the first, no less than 70% for the second.

First: CCCCOc1ccc([C@H]2N[C@@H]3CCCC[C@H]3NC3=C2C(=O)NC3)c(OCCCC)c1 [Example 40]
Second: CN1C2=C(C(=O)NC2)C(c2ccc(Br)cc2)Nc2ccccc21 (stereo not drawn) [Example 44]
The activation at 100 µg/mL of the first is higher: no less than 70% for the first, 20 to 40% for the second.

same assay, conditions: concentration having a reinforcing effect corresponding to 50% of the reinforcing effect of insulin (100%); rat adipose cells

First: COc1ccccc1[C@@H]1C2=C(CNC2=O)N[C@@H]2CCCC[C@H]2N1C(C)=O [Example 45]
Second: CCC(=O)N1[C@@H]2CCCC[C@H]2NC2=C(C(=O)NC2)[C@H]1c1ccccc1OC [Example 46]
The “A: sugar transporting activity (EC50)” value of the first is 1.7-fold higher: 1.3 µg/mL for the first, 0.77 µg/mL for the second.

Going from `CCCC(=O)N1[C@@H]2CCCC[C@H]2NC2=C(C(=O)NC2)[C@H]1c1ccccc1OC` [Example 47] to `COc1ccccc1[C@@H]1C2=C(CNC2=O)N[C@@H]2CCCC[C@H]2N1C(=O)CCN` [Example 66], the “A: sugar transporting activity (EC50)” value rises from 4.6 µg/mL to 8 µg/mL (1.7-fold).

Compared with `COc1ccccc1[C@@H]1C2=C(CNC2=O)N[C@@H]2CCCC[C@H]2N1C(=O)C(F)(F)F` [Example 48], `COc1ccccc1[C@@H]1C2=C(CNC2=O)N[C@@H]2CCCC[C@H]2N1C(=O)C(F)(F)C(F)(F)F` [Example 50] is 2.1-fold higher in “A: sugar transporting activity (EC50)” value: 4.5 µg/mL for the first, 9.5 µg/mL for the second.

Compared with `COc1ccccc1[C@@H]1C2=C(CNC2=O)N[C@@H]2CCCC[C@H]2N1C(=O)CC(F)(F)F` [Example 49], `COc1ccccc1[C@@H]1C2=C(CNC2=O)N[C@@H]2CCCC[C@H]2N1C(=O)CO` [Example 51] is 4.3-fold higher in “A: sugar transporting activity (EC50)” value: 0.47 µg/mL for the first, 2 µg/mL for the second.

`COc1ccccc1[C@@H]1C2=C(CNC2=O)N[C@@H]2CCCC[C@H]2N1C(=O)COC(C)=O` [Example 52] and `COc1ccccc1[C@@H]1C2=C(CNC2=O)N[C@@H]2CCCC[C@H]2N1C(=O)CC(C)=O` [Example 72] are within 1.5-fold of each other in “A: sugar transporting activity (EC50)” value: 5.9 µg/mL for the first, 5.5 µg/mL for the second.

`COCC(=O)N1[C@@H]2CCCC[C@H]2NC2=C(C(=O)NC2)[C@H]1c1ccccc1OC` [Example 53] and `CCOCC(=O)N1[C@@H]2CCCC[C@H]2NC2=C(C(=O)NC2)[C@H]1c1ccccc1OC` [Example 54] are within 1.5-fold of each other in “A: sugar transporting activity (EC50)” value: 2 µg/mL for the first, 2.2 µg/mL for the second.

`COc1ccccc1[C@@H]1C2=C(CNC2=O)N[C@@H]2CCCC[C@H]2N1C(=O)COc1ccccc1` [Example 55] and `COc1ccccc1[C@@H]1C2=C(CNC2=O)N[C@@H]2CCCC[C@H]2N1C(=O)Cc1ccccc1` [Example 56] are within 1.5-fold of each other in “A: sugar transporting activity (EC50)” value: 4.6 µg/mL for the first, 5 µg/mL for the second.

Going from `CC=CC(=O)N1C(c2ccccc2OC)C2=C(CNC2=O)NC2CCCCC21` (stereo not drawn) [Example 59] to `COCCC(=O)N1[C@@H]2CCCC[C@H]2NC2=C(C(=O)NC2)[C@H]1c1ccccc1OC` [Example 67], the “A: sugar transporting activity (EC50)” value rises from 1.1 µg/mL to 3.4 µg/mL (3.1-fold).

`COC(=O)CCC(=O)N1[C@@H]2CCCC[C@H]2NC2=C(C(=O)NC2)[C@H]1c1ccccc1OC` [Example 60] and `COc1ccccc1[C@@H]1C2=C(CNC2=O)N[C@@H]2CCCC[C@H]2N1C(=O)CCCO` [Example 62] are the same in “A: sugar transporting activity (EC50)” value: 4.8 µg/mL for the first, 4.8 µg/mL for the second.

First: COc1ccccc1[C@@H]1C2=C(CNC2=O)N[C@@H]2CCCC[C@H]2N1C(=O)CCNC(=O)OCc1ccccc1 [Example 65]
Second: COc1ccccc1[C@@H]1C2=C(CNC2=O)N[C@@H]2CCCC[C@H]2N1C(=O)CCc1ccccc1 [Example 68]
The “A: sugar transporting activity (EC50)” value of the first is 8.9-fold higher: 8 µg/mL for the first, 0.9 µg/mL for the second.

`COc1ccccc1CCC(=O)N1[C@@H]2CCCC[C@H]2NC2=C(C(=O)NC2)[C@H]1c1ccccc1OC` [Example 69] and `COc1ccccc1[C@@H]1C2=C(CNC2=O)N[C@@H]2CCCC[C@H]2N1C(=O)CCc1ccc(F)c(F)c1` [Example 70] are within 1.5-fold of each other in “A: sugar transporting activity (EC50)” value: 4 µg/mL for the first, 4.2 µg/mL for the second.

First: COc1ccccc1[C@@H]1C2=C(CNC2=O)N[C@@H]2CCCC[C@H]2N1C(=O)CCSC [Example 71]
Second: COc1ccccc1[C@@H]1C2=C(CNC2=O)N[C@@H]2CCCC[C@H]2N1C(=O)c1ccccn1 [Example 76]
The “A: sugar transporting activity (EC50)” value of the first is 3.8-fold lower: 2.6 µg/mL for the first, 10 µg/mL for the second.
